Data as given in PMC9502271, “An Investigation of the Anti-Depressive Properties of Phenylpropanoids and Flavonoids in Hemerocallis citrina Baroni” (Molecules, 2022).
Like-named read-outs stand apart in the source and are kept apart here.

Legend:
[1] = system: NO production induced by LPS in BV2 cells; assay: Inhibition of NO production in LPS-induced BV2 microglial cells (Griess reagent); assay type: cell-based; conditions: for IC50: compound test concentrations 3.125 to 100 μM, mean ± SD (n = 3), read-out: IC50 NO Inhibitory
Description: (§1) BV2 microglia cells were purchased from iCell Bioscience Inc. (Shanghai, China). The cells were grown at 37 °C in a humid environment with 5% CO2. In DMEM with 10% fetal bovine serum and 1% penicillin-streptomycin solution, they were maintained alive. The following assays were carried out while the cells were in the exponential growth phase (subcultured 2–3 times).
To determine how much NO is produced, the literature was consulted. Equal parts of the Griess reagent (1% sulfanilamide and 0.1% N-(1-naphthyl) ethylenediamine dihydrochloride in 2.5% phosphoric acid) were combined with the sample-treated cell culture medium for 5 min at room temperature and in the dark. It was determined that the absorbance was at 540 nm using a microplate reader. The trials were conducted simultaneously in triplicate.

BV2 microglial cells = assay: CCK8 cytotoxic activity in BV2 microglial cells; assay type: cell-based; conditions: Mus musculus, BV-2, CCK8, LPS 1 μg/mL 24 h, compound test concentrations 3.125 to 100 μM, read-out: IC50 Cell Viability
Description: as §1
The cytotoxic activity was assessed using the CCK8 test. In a 96-well plate, BV2 microglial cells (5 × 10^4 cells/well) were placed in each well and incubated for 12 h. After one hour with each substance, LPS (1 μg/mL) was applied to the BV2 microglia cells for an additional 24 h. The CCK8 solution was then incubated with BV2 cells for 1 h at 37 °C. The absorbance at 450 nm was measured using a plate reader (Molecular Devices, San Jose, CA, USA). The cells that had not been treated were assumed to have a 100% optical density.

[2] = Mus musculus, BV-2, LPS-induced BV2 cells

Row | IC50 [1, 2] | Compound | IC50 (BV2 microglial cells) | inhibitory effects on NO production in comparison with the positive drug indomethacin ([1]; LPS-induced BV2 cells) | IC50 ([1]; LPS-induced BV2 cells)
1 | > 100 µM | COc1cc(-c2oc3cc(O)cc(O)c3c(=O)c2O[C@@H]2O[C@H](CO)[C@@H](O)[C@H](O)[C@H]2O)ccc1O [Compound 26, isorhamnetin-3-O-β-D-glucopyranoside] | > 100 µM |  | 
2 | > 100 µM | COc1cc(-c2oc3cc(O)cc(O)c3c(=O)c2O[C@@H]2O[C@H](CO[C@@H]3O[C@@H](C)[C@H](O)[C@@H](O)[C@H]3O)[C@@H](O)[C@H](O)[C@H]2O)ccc1O [Compound 27] | > 100 µM |  | 
3 | > 100 µM | O=c1c(O[C@@H]2O[C@H](CO)[C@H](O)[C@H](O)[C@H]2O)c(-c2ccc(O)cc2)oc2cc(O)cc(O)c12 [Compound 32, kaempferol-3-O-β-D-galactopyranoside] | > 100 µM |  | 
4 | > 100 µM | O=c1c(O[C@@H]2O[C@H](CO)[C@@H](O)[C@H](O)[C@H]2O)c(-c2ccc(O)cc2)oc2cc(O)cc(O)c12 [Compound 33, kaempferol-3-O-β-D-glucopyranoside] | > 100 µM |  | 
5 | > 100 µM | C[C@@H]1O[C@@H](OC[C@H]2O[C@@H](Oc3c(-c4ccc(O)cc4)oc4cc(O)cc(O)c4c3=O)[C@H](O)[C@@H](O)[C@H]2O)[C@H](O)[C@H](O)[C@H]1O [Compound 34, kaempferol-3-O-α-L-rhamnopyranosyl-(1→6)-β-D-galactpyranoside] | > 100 µM |  | 
6 | > 100 µM | C[C@@H]1O[C@@H](OC[C@H]2O[C@@H](Oc3c(-c4ccc(O)cc4)oc4cc(O)cc(O)c4c3=O)[C@H](O)[C@@H](O)[C@@H]2O)[C@H](O)[C@H](O)[C@H]1O [Compound 35, kaempferol-3-O-α-L-rhamnopyranosyl-(1→6)-β-D-glucopyranoside] | > 100 µM |  | 
7 | > 100 µM | C[C@@H]1O[C@@H](OC[C@H]2O[C@@H](Oc3c(-c4ccc(O)cc4)oc4cc(O)cc(O)c4c3=O)[C@H](O[C@@H]3O[C@@H](C)[C@H](O)[C@@H](O)[C@H]3O)[C@@H](O)[C@H]2O)[C@H](O)[C@H](O)[C@H]1O [Compound 36, kaempferol-3-O-[α-L-rhamnopyranosyl-(1→6)]-[α-L-rhamnopyranosyl-(1→2)]-β-D-galactopyranoside] | > 100 µM |  | 
8 | < 100 µM | C[C@@H]1O[C@@H](OC[C@H]2O[C@@H](Oc3c(-c4ccc(O)cc4)oc4cc(O)cc(O)c4c3=O)[C@H](O[C@@H]3O[C@@H](C)[C@H](O)[C@@H](O)[C@H]3O)[C@@H](O)[C@@H]2O)[C@H](O)[C@H](O)[C@H]1O [Compound 37, kaempferol-3-O-[α-L-rhamnopyranosyl-(1→6)]-[α-L-rhamnopyranosyl-(1→2)]-β-D-glucopyranoside] | > 100 µM |  | 96.1 ± 11.6 µM
9 | 52.6 ± 4.58 µM | COc1ccc2c(c1)c(CC(=O)O)c(C)n2C(=O)c1ccc(Cl)cc1 [Indomethacin, indomethacin, reference compound] | > 100 µM |  | 

Second part, the compound before the results:

Row | Compound | IC50 [1, 2] | IC50 (BV2 microglial cells) | inhibitory effects on NO production in comparison with the positive drug indomethacin ([1]; LPS-induced BV2 cells) | IC50 ([1]; LPS-induced BV2 cells)
10 | C[C@@H]1O[C@@H](OC[C@H]2O[C@@H](Oc3c(-c4ccc(O)c(O)c4)oc4cc(O)cc(O)c4c3=O)[C@H](O)[C@@H](O)[C@H]2O)[C@H](O)[C@H](O)[C@H]1O [Compound 21, quercetin-3-O-α-L-rhamnopyranosyl-(1→6)-β-D-galactpyranoside] | > 100 µM | > 100 µM |  | 
11 | C[C@@H]1O[C@@H](OC[C@H]2O[C@@H](Oc3c(-c4ccc(O)c(O)c4)oc4cc(O)cc(O)c4c3=O)[C@H](O[C@@H]3O[C@@H](C)[C@H](O)[C@@H](O)[C@H]3O)[C@@H](O)[C@@H]2O)[C@H](O)[C@H](O)[C@H]1O [Compound 22, quercetin-3-O-α-L-rhamnopyranosyl-(1→2)-[α-L-rhamnopyranosyl-(1→6)-β-D-glucopyranoside]] | > 100 µM | > 100 µM |  | 
12 | C[C@@H]1O[C@@H](OC[C@H]2O[C@@H](Oc3c(-c4ccc(O)c(O)c4)oc4cc(O)cc(O)c4c3=O)[C@H](O[C@@H]3O[C@@H](C)[C@H](O)[C@@H](O)[C@H]3O)[C@@H](O)[C@H]2O)[C@H](O)[C@H](O)[C@H]1O [Compound 23, quercetin-3-O-α-L-rhamnopyranosyl-(1→2)-[α-L-rhamnopyranosyl-(1→6)-β-D-galactpyranoside]] | > 100 µM | > 100 µM |  | 
13 | COc1cc(-c2oc3cc(O)cc(O)c3c(=O)c2O)ccc1O [Compound 24, isorhamnetin] |  | > 100 µM | stronger inhibitory effects | 
14 | COc1cc(-c2oc3cc(O)cc(O)c3c(=O)c2O[C@@H]2O[C@H](CO)[C@H](O)[C@H](O)[C@H]2O)ccc1O [Compound 25, isorhamnetin-3-O-β-D-galactopyranoside] |  | > 100 µM | stronger inhibitory effects | 
15 | COc1cc(-c2oc3cc(O)cc(O)c3c(=O)c2O[C@@H]2O[C@H](CO[C@@H]3O[C@@H](C)[C@H](O)[C@@H](O)[C@H]3O)[C@H](O)[C@H](O)[C@H]2O[C@@H]2O[C@@H](C)[C@H](O)[C@@H](O)[C@H]2O)ccc1O [Compound 28, isorhamnetin-3-O-α-L-rhamnopyranosyl-(1→2)-[α-L-rhamnopyranosyl-(1→6)-β-D-galactopyranoside]] | < 100 µM | > 100 µM |  | 90.7 ± 10.4 µM
16 | COc1cc(-c2oc3cc(O)cc(O)c3c(=O)c2O[C@@H]2O[C@H](CO[C@@H]3O[C@@H](C)[C@H](O)[C@@H](O)[C@H]3O)[C@@H](O)[C@H](O)[C@H]2O[C@@H]2O[C@@H](C)[C@H](O)[C@@H](O)[C@H]2O)ccc1O [Compound 29, isorhamnetin-3-O-α-L-rhamnopyranosyl-(1→2)-[α-L-rhamnopyranosyl-(1→6)-β-D-glucopyranoside]] | > 100 µM | > 100 µM |  | 
17 | O=c1c(O)c(-c2ccc(O)cc2)oc2cc(O)cc(O)c12 [Compound 30, kaempferol] |  | > 100 µM | stronger inhibitory effects | 
